Test results taken from paper doi:10.1101/2025.09.10.675409, “ACAD10 encodes two orphan enzymes in the ether lipid biosynthetic and salvage pathways” (bioRxiv, 2026).

Columns and labels:
[1] = target: T1, C. elegans ACAD10 KD (ACAD10 kinase domain) (Caenorhabditis elegans, UniProt O01590); assay: […] incorporation, TLC, phosphorimaging; format: biochemical; details: [γ-32P]ATP
T1 construct: gene acds-10; kinase domain, residues 209-568, purified
T1 sequence (O01590 209-568): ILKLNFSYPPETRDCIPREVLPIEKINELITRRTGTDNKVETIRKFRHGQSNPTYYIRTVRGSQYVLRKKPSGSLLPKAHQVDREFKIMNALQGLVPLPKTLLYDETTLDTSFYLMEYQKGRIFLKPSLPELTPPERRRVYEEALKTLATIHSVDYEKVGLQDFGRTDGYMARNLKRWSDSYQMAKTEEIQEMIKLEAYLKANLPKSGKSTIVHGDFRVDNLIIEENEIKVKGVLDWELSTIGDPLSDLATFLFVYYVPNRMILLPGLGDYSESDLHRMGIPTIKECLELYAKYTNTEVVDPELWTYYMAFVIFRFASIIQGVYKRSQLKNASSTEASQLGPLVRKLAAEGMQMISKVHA

[2] = target: T2, C. elegans ACAD10 phosphatase domain (Caenorhabditis elegans, UniProt O01590); assay: dephosphorylation of […]-labelled lipid, TLC, phosphorimaging; format: biochemical; details: labelled compound; Mg2+
T2 construct: gene acds-10; phosphatase domain, residues 1-212
T2 sequence (O01590 1-212): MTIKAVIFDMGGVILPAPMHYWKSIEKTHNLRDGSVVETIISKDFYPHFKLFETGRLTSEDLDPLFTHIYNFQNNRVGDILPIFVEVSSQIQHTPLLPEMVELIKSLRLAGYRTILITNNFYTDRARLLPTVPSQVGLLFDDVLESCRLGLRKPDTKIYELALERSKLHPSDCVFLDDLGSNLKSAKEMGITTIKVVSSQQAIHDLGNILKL

[3] = target: T3, C. thermarum ACAD10 kinase domain (Caldalkalibacillus thermarum, UniProt F5L6J0); assay: X-ray crystallography, […] Å; format: binding; details: nucleotide groove between N- and C-lobe; Mg2+ and acetyl-CoA in crystallization, neither seen
T3 construct: gene CathTA2_1440; purified prokaryotic ACAD10 kinase domain homolog; HYDxK motif with D214/K216, N219, DWE motif D234-E236, R61, E78

[4] = target: T3, C. thermarum ACAD10 kinase domain; assay: […] incorporation, TLC, phosphorimaging; format: biochemical; details: activator; binding site only modelled, no density in crystal
[5] = target: T1, C. elegans ACAD10 KD (ACAD10 kinase domain); assay: […] incorporation into lipid, TLC; format: biochemical; details: activator; purified domain with mouse liver mitochondrial extract as lipid source; Mg2+

CCCCCCCCCCCCCCCCOCC(O)CO (racemic) [chimyl alcohol, 1-O-hexadecyl-rac-glycerol]
32P incorporation, TLC, phosphorimaging [1]: C. elegans ACAD10 phosphorylated chimyl alcohol (1-O-hexadecyl-rac-glycerol) (Figure 1G)

CCCCCCCCCCCCCCCCOC[C@H](COP(=O)(O)O)OC(C)=O [1-alkyl (16:0), 2-acetyl (2:0), 1-O-alkyl-2-acetyl-sn-glycero-3-phosphate]
dephosphorylation of 32P-labelled lipid, TLC, phosphorimaging [2]: phosphatase domain selectively dephosphorylated 1-O-alkyl-2-acetyl-sn-glycero-3-phosphate but not 1-O-alkyl-2-acyl-sn-glycero-3-phosphate

Nc1ncnc2c1ncn2[C@@H]1O[C@H](COP(=O)(O)OP(=O)(O)NP(=O)(O)O)[C@@H](O)[C@H]1O [AMP-PNP]
X-ray crystallography, 2.15 Å [3]: crystal structure of the Caldalkalibacillus thermarum ACAD10 kinase domain bound to the ATP analog AMP-PNP

CC(=O)SCCNC(=O)CCNC(=O)[C@H](O)C(C)(C)COP(=O)(O)OP(=O)(O)OC[C@H]1O[C@@H](n2cnc3c(N)ncnc32)[C@H](O)[C@@H]1OP(=O)(O)O [acetyl-CoA]
32P incorporation, TLC, phosphorimaging [4]: acetyl-CoA stimulates C. thermarum ACAD10 kinase domain | 32P incorporation into lipid, TLC [5]: In addition to acetyl-CoA, CoA alone or other CoA thioesters also activated
